Results as given in patent US8895585B2, “Nicotinamide derivative or salt thereof” (FUJIFILM Corporation, priority 2010, dated 2014).
Like-named read-outs stand apart in the source and are kept apart here.

Key:
[1] = tested on: THP-1 cells; test: TNFα generation assay; assay type: cell-based, human; details: Homo sapiens
In short: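 Secreted TNFα in supernatant quantified by ELISA or AlphaLISA after 7 h culture on human IgG-coated wells (10 μg/ml coating). Cells were IFN-γ-differentiated THP-1 (10 ng/ml, 2 days), exposed to compound for 30 min at room temperature before plating.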

[2] = biological target: T1, glutathione S-transferase (GST)-fused full-length human Syk protein (Homo sapiens, UniProt P43405); test: Syk enzyme assay; assay type: biochemical
T1 construct: (GST)-fused full-length human Syk protein; GST (glutathione S-transferase); purchased Carna Biosciences
In short: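 GST-tagged full-length human Syk (baculovirus) preincubated with compound 15 min at room temperature (pH 7.0, 10 mM MgCl2), then reacted 40 min with 0.4 μM biotinylated peptide substrate and 27 μM ATP (final). Phosphorylation read by HTRF (615/665 nm) after EDTA stop; IC50 reported.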

[3] = THP-1, THP-1 cells, Table 22, read-out: IC50 in TNFα generation assay
[4] = Syk enzyme assay, Test Example 1, read-out: IC50 of Syk-inhibitory activity
[5] = THP-1, 7 h, IFN-γ-differentiated THP-1 cells on human IgG-coated plate, cultured 7 hours, read-out: TNFα generation inhibitory activity (IC50)
[6] = read-out: Syk-inhibitory activity (IC50)

| IC50 [1, 3] [nM] | IC50 [2, 4] [nM] | IC50 [1, 5] [nM] | IC50 [2, 6] [nM] | Compound |
| --- | --- | --- | --- | --- |
| 65 to 130 | < 10 | – | – | CCc1nn(CC)c2ccc(Nc3nc(N[C@H](C4CC4)[C@H](C)N)c(F)cc3C(N)=O)cc12 [Example 006-579, 6-(((1R,2S)-2-amino-1-cyclopropylpropyl)amino)-2-((1,3-diethyl-1H-indazol-5-yl)amino)-5-fluoronicotinamide] |
| 130 to 200 | < 10 | – | – | CC(C)c1nn(C)c2ccc(Nc3nc(N[C@H](C4CC4)[C@H](C)N)c(F)cc3C(N)=O)cc12 [Example 006-580, 6-(((1R,2S)-2-amino-1-cyclopropylpropyl)amino)-5-fluoro-2-((3-isopropyl-1-methyl-1H-indazol-5-yl)amino)nicotinamide] |
| < 65 | < 10 | – | – | CCn1ncc2ccc(Nc3nc(N[C@H](C4CC4)[C@H](C)N)c(F)cc3C(N)=O)cc21 [Example 006-581, 6-(((1R,2S)-2-amino-1-cyclopropylpropyl)amino)-2-((1-ethyl-1H-indazol-6-yl)amino)-5-fluoronicotinamide] |
| < 65 | < 10 | – | – | CCn1nc(C)c2cc(Nc3nc(N[C@H](C4CC4)[C@H](C)N)c(F)cc3C(N)=O)ccc21 [Example 006-583, 6-(((1R,2S)-2-amino-1-cyclopropylpropyl)amino)-2-((1-ethyl-3-methyl-1H-indazol-5-yl)amino)-5-fluoronicotinamide] |
| 65 to 130 | < 10 | – | – | Cc1nn(CC(F)F)c2ccc(Nc3nc(N[C@H](C4CC4)[C@H](C)N)c(F)cc3C(N)=O)cc12 [Example 006-584, 6-(((1R,2S)-2-amino-1-cyclopropylpropyl)amino)-2-((1-(2,2-difluoroethyl)-3-methyl-1H-indazol-5-yl)amino)-5-fluoronicotinamide] |
| < 65 | < 10 | – | – | COc1nn(C)c2ccc(Nc3nc(N[C@@H]4CCCC[C@@H]4N)c(F)cc3C(N)=O)cc12 [Example 006-585, 6-(((1R,2S)-2-aminocyclohexyl)amino)-5-fluoro-2-((3-methoxy-1-methyl-1H-indazol-5-yl)amino)nicotinamide] |
| 65 to 130 | < 10 | – | – | COc1nn(C)c2ccc(Nc3nc(N[C@H](CC4CC4)[C@H](C)N)c(F)cc3C(N)=O)cc12 [Example 006-586, 6-(((2R,3S)-3-amino-1-cyclopropylbutan-2-yl)amino)-5-fluoro-2-((3-methoxy-1-methyl-1H-indazol-5-yl)amino)nicotinamide] |
| 65 to 130 | < 10 | – | – | COc1nn(C)c2ccc(Nc3nc(N[C@H](CC(C)C)[C@H](C)N)c(F)cc3C(N)=O)cc12 [Example 006-587, 6-(((2S,3R)-2-amino-5-methylhexan-3-yl)amino)-5-fluoro-2-((3-methoxy-1-methyl-1H-indazol-5-yl)amino)nicotinamide] |
| < 65 | < 10 | – | – | CC[C@@H](Nc1nc(Nc2ccc3c(c2)c(OC)nn3C)c(C(N)=O)cc1F)[C@H](C)N [Example 006-588, 6-(((2S,3R)-2-aminopentan-3-yl)amino)-5-fluoro-2-((3-methoxy-1-methyl-1H-indazol-5-yl)amino)nicotinamide] |
| 65 to 130 | < 10 | – | – | COc1nn(C)c2ccc(Nc3nc(N[C@H](C4CC4)[C@H](C)N)c(F)cc3C(N)=O)cc12 [Example 006-589, 6-(((1R,2S)-2-amino-1-cyclopropylpropyl)amino)-5-fluoro-2-((3-methoxy-1-methyl-1H-indazol-5-yl)amino)nicotinamide] |
| 130 to 200 | < 10 | – | – | CCOc1nn(CC)c2ccc(Nc3nc(N[C@@H]4CCCC[C@@H]4N)c(F)cc3C(N)=O)cc12 [Example 006-590, 6-(((1R,2S)-2-aminocyclohexyl)amino)-2-((3-ethoxy-1-ethyl-1H-indazol-5-yl)amino)-5-fluoronicotinamide] |
| 130 to 200 | < 10 | – | – | CCOc1nn(CC)c2ccc(Nc3nc(N[C@H](CC4CC4)[C@H](C)N)c(F)cc3C(N)=O)cc12 [Example 006-591, 6-(((2R,3S)-3-amino-1-cyclopropylbutan-2-yl)amino)-2-((3-ethoxy-1-ethyl-1H-indazol-5-yl)amino)-5-fluoronicotinamide] |
| 130 to 200 | < 10 | – | – | CCOc1nn(CC)c2ccc(Nc3nc(N[C@H](CC(C)C)[C@H](C)N)c(F)cc3C(N)=O)cc12 [Example 006-592, 6-(((2S,3R)-2-amino-5-methylhexan-3-yl)amino)-2-((3-ethoxy-1-ethyl-1H-indazol-5-yl)amino)-5-fluoronicotinamide] |
| 65 to 130 | < 10 | – | – | CCOc1nn(CC)c2ccc(Nc3nc(N[C@H](CC)[C@H](C)N)c(F)cc3C(N)=O)cc12 [Example 006-593, 6-(((2S,3R)-2-aminopentan-3-yl)amino)-2-((3-ethoxy-1-ethyl-1H-indazol-5-yl)amino)-5-fluoronicotinamide] |
| 65 to 130 | < 10 | – | – | CC[C@@H](Nc1nc(Nc2ccc3c(c2)c(-n2cccn2)nn3C)c(C(N)=O)cc1F)[C@H](C)N [Example 006-596, 6-(((2S,3R)-2-aminopentan-3-yl)amino)-5-fluoro-2-((1-methyl-3-(1H-pyrazol-1-yl)-1H-indazol-5-yl)amino)nicotinamide] |
| 65 to 130 | < 10 | – | – | Cc1cc(Nc2nc(N[C@H](C3CCC3)[C@H](C)N)c(F)cc2C(N)=O)cnc1C [Example 006-597, 6-(((1R,2S)-2-amino-1-cyclobutylpropyl)amino)-2-((5,6-dimethylpyridin-3-yl)amino)-5-fluoronicotinamide] |
| 130 to 200 | < 10 | – | – | Cc1ncc(Nc2nc(N[C@H](C3CCC3)[C@H](C)N)c(F)cc2C(N)=O)cc1-n1nccn1 [Example 006-598, 6-(((1R,2S)-2-amino-1-cyclobutylpropyl)amino)-5-fluoro-2-((6-methyl-5-(2H-1,2,3-triazol-2-yl)pyridin-3-yl)amino)nicotinamide] |
| 65 to 130 | 10 to 50 | – | – | COc1cc(Nc2nc(NCCN)c(F)cc2C(N)=O)cc(OC)c1 [Example 008-001] |
| < 65 | < 10 | – | – | NC(=O)c1cc(F)c(NC2CCCCC2N)nc1Nc1cncc2ccccc12 (stereo not shown) [Example 010-001] |
| 130 to 200 | 10 to 50 | – | – | NC(=O)c1cc(F)c(NC2CCCCC2N)nc1Nc1cnc2ncccc2c1 (stereo not shown) [Example 010-002] |
| – | – | ≤ 200 | ≤ 1000 | CC(C)C[C@@H](Nc1nc(Nc2ccc3ncccc3c2)c(C(N)=O)cc1F)C(N)=O [Example 11, 6-(((2R)-1-amino-4-methyl-1-oxopentan-2-yl)amino)-5-fluoro-2-(quinolin-6-ylamino)nicotinamide] |
| 130 to 200 | 10 to 50 | – | – | CC(C)C[C@@H](Nc1nc(Nc2ccc3ncsc3c2)c(C(N)=O)cc1F)C(N)=O [Example 012-005] |
| – | – | ≤ 200 | ≤ 1000 | NC(=O)c1cc(F)c(N[C@@H](C(N)=O)c2ccccc2)nc1Nc1ccc2ncccc2c1 [Example 12-8, 6-(((1R)-2-amino-2-oxo-1-phenylethyl)amino)-5-fluoro-2-(quinolin-6-ylamino)nicotinamide] |
| 65 to 130 | < 10 | – | – | CC(C)C[C@@H](Nc1nc(Nc2ccc3ncccc3c2)c(C(N)=O)cc1F)C(N)=O [Example 012-009] |
| 130 to 200 | 10 to 50 | – | – | NC(=O)c1cc(F)c(N[C@@H](C(N)=O)c2ccccc2)nc1Nc1cnc2ccccc2c1 [Example 012-013] |
| 65 to 130 | 10 to 50 | – | – | CC[C@@H](Nc1nc(Nc2ccc3ncccc3c2)c(C(N)=O)cc1F)C(N)=O [Example 012-031] |
